From US6017958A, “Method of treating malignant tumors with thyroxine analogues having no significant hormonal activity” (Octamer, Inc., priority 1997, dated 2000)
Several values for one entry are separate records, joined by “and”; a condition that tells them apart may be missing. Equal values may be shown once. Read-outs that look alike come from different tables or passages of the source.

Experiments:
[1] = Serum half-life and bioavailability of 14C-DIME; assay type: in vivo, mouse
Procedure: Aliquots (50 μL) of blood were assayed in a liquid scintillation counter and data expressed as microgram-equivalents per mL. The blood level data were analyzed by the RSTRIP method (Micromath, Salt Lake City, Utah).

[2] = test system: MDA-MB-231 cells; assay: Colony formation / cell killing; assay type: cell-based, human
Procedure: Assays for Quantitation of colony formation were performed as reported, Vidair, et al., 1986 "Evaluation of a Role for Intracellular Na^+, K^+, Ca2^+ and Mg^2+ in hyperthermic cell killing" Radiation Res. 105:187-200.

[3] = test system: MDA-MB-231 cells; assay: Chromosome analysis by in situ hybridization; assay type: cell-based, human; conditions: 1 μM
Procedure: The MDA-MB-231 cell line was obtained from ATCC (Rockville, Md., USA) and cells were cultured in T-75 flasks at 37° C. in Minimum Essential Medium-alpha, supplemented with 10% FCS. In controls, not receiving DIME, 0.1 μg/ml colcemid was added to cultures for 4 hrs prior to the collection of metaphase-blocked cells and preparation of cell spreads. […] Cells (10^7) were isolated from T-75 trypsinization for 5 min with 0.025% trypsin, and sedimented by centrifugation, resuspended and kept in 10 ml of 75 mM KC1 at 37° C. for 10 min, resedimented, and fixed in 10 ml methanol-acetic acid, with four successive changes of methanol-acetic acid. An aliquot of the final cell suspension (100 μl) was dropped on ethanol-cleaned slides and air-dried.
Human chromosome-specific probes were produced by ONCOR (Gaithersburg, Md., USA). Hybridization was accomplished by a modification of the procedure described by Pinkel et al., 1986, "Cytogentic Analysis Using Quantitative High-Sensitivity Fluorescence Hybridization," Proc. Natl. Acad. Sci. U.S.A. 83:2934-2938. The slide-mounted cells were treated with pepsin (20 μg/ml in 0.01 N HCl) at 37° C. for 10 min and then dehydrated in a 70%, 85% and 100% ethanol series, then DNA was denatured by immersion in 70% formamide, followed by 2X standard saline citrate (IX SSC is […], 0.015 M sodium citrate, pH 7.0) for 2 min. at 70° C., and dehydrated in ethanol as described above. The hybridization mixture in a 10 μl total volume consisted of 50% formamide, 2X SSC, 10% dextran sulfate, 0.5 μg herring sperm DNA, and 1-5 μg of proteinase K-treated human placental DNA. Both herring sperm DNA and human placental DNA were previously sonicated to 200-600 bp fragments, and -40 ng of digoxigeninylated probe DNA (denatured at 70° C. for 5 min) added, and incubated at 37° C. for 1 hr. This mixture was placed on slides containing the fixed cells, sealed under a coverslip, and incubated at 37° C. for 2 to 3 days. […] The slides were viewed in a Zeiss fluorescence microscope equipped with a multiple band pass filter (Chroma Technology, Brattleboro, Vt., USA) to determine the number of FISH signals in each nucleus.

[4] = test system: MDA-MB-231 cells; assay: Immunocytochemistry of mitotic spindle and spindle-associated proteins; assay type: cell-based, human; conditions: 18 hrs
Procedure: Cells were fixed in methanol at -20° C. for 5 min. The primary antibody was mouse monoclonal anti-beta tubulin (Amersham) and secondary antibody from goat, conjugated to fluorescein isothiocyanate from Cappel (Durham, N.C., USA). The DNA of nuclei was stained by 10 min of incubation in 0.05 μg/ml 4'-6-diamidono-2-phenylindole (DAPI). Stained cells were viewed with either a Zeiss 40xPlan-Neofluar or a Nikon 60xPlanApo objective. For classification of cells in the mitotic phase, prophase and metaphase were combined into a single category, because it was difficult to distinguish late prophase from metaphase.
In preliminary studies (data not shown) we have also studied the behavior of certain spindle-associated proteins by the immunocytologic technique.

[5] = test system: SK-Br-3 (mammary cancer); assay: Cytocidal action/growth inhibition, SK-Br-3; assay type: cell-based; conditions: Homo sapiens
Procedure: Seven human cancer cell lines were obtained from the American Tissue Culture Collection (Rockville, Md.) and maintained in the recommended growth media. Cells were seeded into wells (2 cm^2) at a density of 2×10^4 cells/cm^2. Various concentrations of Compounds 1-13 were added to the media at the time of seeding.
The cultures were incubated for 72 hours at 37° C. (5% CO2 atmosphere). Following incubation, cells were detached with trypsin and counted in a hemocytometer.
I100 designates the concentration at which no viable cells remained; I50 the concentration at which 50% viable cells remained, as compared to a control.
E-ras 20 cells were cultured as reported, Bauer et al., 1996, "Modification of growth related enzymatic pathways and apparent loss of tumorigenicity of a ras-transformed bovine endothelial cell line by treatment with 5-iodo-6-amino-1,2-benzopyrone (INH2 BP)" Intl. J. Oncol. 8:239-252; HT-144 (melanoma), DU-145 (prostatic cancer), HeLa (cervical cancer), HL 60 (promyelocytic leukemia), MDA-MB-231 (mammary cancer), SK-Br-3 (mammary cancer), T47D (ductal mammary cancer), A559 (lung cancer) were obtained from American Type Culture Collection (Rockville, Md.) and cultured in prescribed media. The effect of DIME was tested in cultures with a starting cell density of 2×10^4 cells per cm^2 and comparison of the effect of DIME on cell growth (intact cells identified by Trypan blue exclusion) was assayed by direct cell counting after trypsinization in a hemocytometer 72 hours after drug addition.
For DIME-exposure experiments cells were seeded into 2 cm^2 wells at a density of 2×10^4 cells/cm^2. DIME at various concentrations was added to the medium at the time of seeding. The cell cultures were then incubated for 3 days (37° C. in 5% at CO2 atmosphere).

In the case of `COC(=O)c1cc(I)c(Oc2ccc(OC)cc2)c(I)c1` [Compound 1, Methyl 3,5-diiodo-4-(4'-methoxyphenoxy)benzoate], the “i.v. serum half-life (t1/2)” value ([1]; i.v., 24.5 mg/kg) is reported as 2 to 2.5 h, the oral bioavailability ([1]; oral 126 mg/kg vs i.v. 24.5 mg/kg, listed as DIME, 126 mg/kg) is reported as 83% and 87% and the “half-life (t1/2)” value ([1]; serum) is reported as 2 to 2.5 h. The colony forming ability ([2]; 1-2 μM, 10 days) was “profoundly diminished”, the “cell killing after drug removal” value ([2]; DIME removed prior to end of 8 hours incubation) was “cell killing was prevented and drug-induced morphologic changes were completely reversed” and the “effect on chromosomes (in situ hybridization)” value ([3]; 18 hrs) was “no detectable effect”. For the same molecule, the chromosome breakage ([3]; 5 days) was “No evidence for chromosome breakage”, the chromosome-19 signals ([3]; 5 days, some cells) was “about 40 chromosome-19 signals” and the chromosomes per cell ([3]; 5 days, some cells) was “over 100 chromosomes”. For the same molecule, the “mitotic spindle / tubulin distribution” value ([4]; 1 μM) was “striking abnormalities of-tubulin distribution”, the “Cyclin B-microtubule-spindle association” value ([4]; 1 μM, data not shown) was “remained unchanged” and the cdc-2 kinase-spindle binding ([4]; 1 μM, data not shown) was “induction of cdc-2-kinase-spindle binding”. For the same molecule, the number of centrosomes ([4]; 1 μM, data not shown) was “unable to detect abnormal number of centrosomes”, the pericentrin staining pattern ([4]; 1 μM, data not shown) was “did not alter the pattern of staining” and the “protein phosphatase 2a-spindle association” value ([4]; 1 μn (so in the source), data not shown) was “not influenced by drug-treatment”. The IC50 ([5]; SK-BR-3, 72 h, day 3, Table 11, read-out: I50 (day 3)) was 600 nM, the IC50 ([5]; SK-BR-3, 72 h, Table 4, read-out: I50) was 600 nM and the IC100 ([5]; SK-BR-3, 72 h, Table 4, read-out: I100 (no viable cells remained)) was 5 µM.
